The text below walks through data of patent publication US20260022114A1, “N-(5-SUBSTITUTED-[(1,3,4-THIADIAZOLYL) OR (1,3-THIAZOLYL)](SUBSTITUTED)CARBOXAMIDE COMPOUNDS, PHARMACEUTICAL COMPOSITIONS, AND METHODS OF PREPARING THE AMIDE COMPOUNDS AND OF THEIR USE” (Repare Therapeutics Inc., priority 2022, published 2026).

Sequence of PolQ ATPase enzyme (1-894) (O75417 1-894): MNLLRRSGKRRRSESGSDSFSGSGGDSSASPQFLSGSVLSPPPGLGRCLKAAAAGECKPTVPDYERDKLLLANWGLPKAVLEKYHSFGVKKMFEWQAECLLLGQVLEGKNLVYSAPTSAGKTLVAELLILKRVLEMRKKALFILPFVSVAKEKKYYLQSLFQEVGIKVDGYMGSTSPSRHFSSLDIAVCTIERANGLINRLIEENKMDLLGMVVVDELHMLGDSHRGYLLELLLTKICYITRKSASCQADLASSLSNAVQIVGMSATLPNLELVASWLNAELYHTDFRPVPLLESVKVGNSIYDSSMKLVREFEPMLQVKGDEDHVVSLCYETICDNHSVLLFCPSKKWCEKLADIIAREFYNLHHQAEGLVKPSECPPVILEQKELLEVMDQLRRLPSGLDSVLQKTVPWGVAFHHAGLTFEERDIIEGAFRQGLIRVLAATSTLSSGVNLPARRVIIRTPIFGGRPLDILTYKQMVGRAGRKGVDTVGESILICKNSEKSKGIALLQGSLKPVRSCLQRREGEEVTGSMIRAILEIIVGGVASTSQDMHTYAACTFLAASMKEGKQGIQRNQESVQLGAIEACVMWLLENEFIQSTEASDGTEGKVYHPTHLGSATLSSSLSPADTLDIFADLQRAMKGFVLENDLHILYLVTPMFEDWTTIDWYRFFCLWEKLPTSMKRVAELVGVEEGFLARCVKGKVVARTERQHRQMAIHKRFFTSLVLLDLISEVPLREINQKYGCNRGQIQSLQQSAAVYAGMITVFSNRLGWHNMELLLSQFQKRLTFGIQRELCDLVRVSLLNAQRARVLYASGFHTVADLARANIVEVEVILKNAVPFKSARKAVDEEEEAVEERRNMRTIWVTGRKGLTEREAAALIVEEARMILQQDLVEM

The target in the assay is PolQ ATPase enzyme (1-894) (Homo sapiens (Human), UniProt O75417). In words: Polθ ATPase enzymatic assay (0.5 nM enzyme concentration), ADP-Glo. It counts as biochemical. Particulars: 0.5 nM PolQ ATPase enzyme (1-894); average IC50. How it is done:
PolQ ATPase enzyme (1-894) at 0.5 nM is incubated with a 10-point concentration response of inhibitors for 15 min at rt in the following buffer: 50 mM Tris Cl pH 7.5, 10% glycerol, 5 mM DTT, 10 mM MgCl2, 0.1 mg/ml BSA. Following pre-incubation with inhibitors, DNA (Fork C) at 20 nM and ATP at 100 μM are added to start the reaction. Enzymatic reaction proceeds at rt for 180 min. ATP consumption is measured using the ADP-Glo assay from Promega. Luminescence is read on the Envision and IC50 are determined using the variable slope 4-parameters equation.
Oligos are annealed by heating at 95° C. for 5 min in the following buffer (10 mM Tris-HCl PH7.5, 50 mM NaCl, 1 mM EDTA) and cooled to rt. […]
In turn, `COc1cnc(C(F)F)cc1-c1cc(-n2ccc(C)cc2=O)ncc1C(=O)Nc1nnc([C@H]2C[C@@H]2C(C)C)s1` (racemic) [Compound 586] displayed a half-inhibitory concentration (IC50) of 1.2 nM.

For the compound `COc1cnc(C(F)F)cc1-c1cc(-n2ccc(C)cc2=O)ncc1C(=O)Nc1nnc([C@H]2C[C@@H]2c2ccccn2)s1` (racemic) [Compound 592], half-maximal inhibition (IC50) was put at 0.48 nM.

As for `C#C[C@@H]1CC1c1nnc(NC(=O)c2cnc(-n3ccc(C)cc3=O)cc2-c2cc(C(F)F)ncc2OC)s1` (mixture of isomers) [Compound 593], 9.9 nM corresponded to half-maximal inhibition (IC50).

As to `COc1cnc(C(F)F)cc1-c1cc(-n2ccc(C)cc2=O)ncc1C(=O)Nc1nnc(C(C)OC)s1` (racemic) [Compound 604], half-maximal inhibition (IC50) was put at 30 nM.

Turning to `COc1cnc(C(F)F)cc1-c1cc(-n2ccc(C)cc2=O)ncc1C(=O)Nc1nnc(C2CC2(F)Cl)s1` (racemic) [Compound 605], the half-inhibitory concentration (IC50) was found to be 4 nM.

For `COc1cnc(C(F)F)cc1-c1cc(C#CCN2CCOCC2)ncc1C(=O)Nc1nnc([C@H]2C[C@@H]2C)s1` (racemic) [Compound 606], the concentration for half-maximal inhibition (IC50) is 4 nM.

As to `COc1cnc(C(F)F)cc1-c1cc(-n2ccc(OC3CCN(C)C3)cc2=O)ncc1C(=O)Nc1nnc(C#CC2CC2)s1` (racemic) [Compound 612], it took 0.85 nM to reach half-maximal inhibition (IC50).

`COc1cnc(C(F)F)cc1-c1cc(-n2ccc(OC3CCN(C)C3)cc2=O)ncc1C(=O)Nc1ncc(C#CC2CC2)s1` (racemic) [Compound 615] showed an IC50 of 1.1 nM.

Turning to `COc1cnc(C(F)F)cc1-c1cc(C#CCN2CCCC2=O)ncc1C(=O)Nc1nnc([C@H]2C[C@@H]2C)s1` (racemic) [Compound 618], 0.81 nM corresponded to half-maximal inhibition (IC50).

The compound `COc1cnc(C(F)F)cc1-c1cc(C#CC(C)(C)O)ncc1C(=O)Nc1nnc([C@H]2C[C@@H]2C)s1` (racemic) [Compound 619] yielded an IC50 of 4.9 nM.

Take `COc1cnc(C(F)F)cc1-c1cc(C#CCC(C)(C)O)ncc1C(=O)Nc1nnc([C@H]2C[C@@H]2C)s1` (racemic) [Compound 620]: the IC50 was determined as 3.2 nM.

For `COc1cnc(C(F)F)cc1-c1cc(C#CCC(C)(C)O)ncc1C(=O)Nc1nnc([C@H]2C[C@@H]2c2ccn(C)n2)s1` (racemic) [Compound 622], the IC50 is 1.4 nM.

`COCCC#Cc1cc(-c2cc(C(F)F)ncc2OC)c(C(=O)Nc2nnc([C@H]3C[C@@H]3C)s2)cn1` (racemic) [Compound 625] registered a 50% inhibitory concentration (IC50) of 0.42 nM.

The compound `COc1cnc(C(F)F)cc1-c1cc(-n2ccc(C)cc2=O)ncc1C(=O)Nc1nnc(C2C[C@@H]2C2CCCO2)s1` (mixture of isomers) [Compound 633] showed a 50% inhibitory concentration (IC50) of 0.95 nM.

Compound `COc1cnc(C(F)F)cc1-c1cc(C#CCN2CCOCC2)ncc1C(=O)Nc1nnc([C@H]2C[C@@H]2c2cscn2)s1` (racemic) [Compound 634, 2′-(difluoromethyl)-5′-methoxy-6-(3-morpholinoprop-1-yn-1-yl)-N-(5-((1S,2S)-2-(thiazol-4-yl)cyclopropyl)-1,3,4-thiadiazol-2-yl)-[4,4′-bipyridine]-3-carboxamide] yielded an IC50 of 0.86 nM.

As for `COc1cnc(C(F)F)cc1-c1cc(-n2ccc(C)cc2=O)ncc1C(=O)Nc1nnc(C2C[C@@H]2c2cscn2)s1` (mixture of isomers) [Compound 635], the IC50 was found to be 0.25 nM.

On to `CC#C[C@H]1CC1c1nnc(NC(=O)c2cnc(-n3ccc(C)cc3=O)cc2-c2cc(C(F)F)ncc2OC)s1` (mixture of isomers) [Compound 637], for which the half-maximal inhibitory concentration (IC50) is less than 0.25 nM.

On to `CC#C[C@H]1CC1c1nnc(NC(=O)c2cnc(-n3cccc(F)c3=O)cc2-c2cc(C(F)F)ncc2OC)s1` (mixture of isomers) [Compound 638], for which the IC50 is less than 0.25 nM.

Turning to `C#C[C@@]1(F)CC1c1nnc(NC(=O)c2cnc(-n3ccc(C)cc3=O)cc2-c2cc(C(F)F)ncc2OC)s1` (mixture of isomers) [Compound 639], the IC50 was determined as 0.47 nM.

Take `COc1cnc(C(F)F)cc1-c1cc(C#CCN2CCOCC2)ncc1C(=O)Nc1nnc([C@H]2C[C@@H]2c2cncs2)s1` (racemic) [Compound 640]: inhibition was half-maximal at 0.54 nM (IC50).

As for `COc1cnc(C(F)F)cc1-c1cc(C#CCN2CCCC2=O)ncc1C(=O)Nc1nnc([C@H]2C[C@@H]2c2cscn2)s1` (racemic) [Compound 641], the IC50 is less than 0.25 nM.

`COc1cnc(C(F)F)cc1-c1cc(C#CCN2CCCC2=O)ncc1C(=O)Nc1nnc([C@H]2C[C@@H]2c2cncs2)s1` (racemic) [Compound 643] returned an IC50 of 0.3 nM.

The compound `C#C[C@@H]1CC1c1nnc(NC(=O)c2cnc(-n3ccc(C)cc3=O)cc2-c2cc(C(F)F)ncc2OC)s1` (single isomer, unassigned) [Compound 480] yielded an IC50 of 1.7 nM.

`C#C[C@H]1CC1c1nnc(NC(=O)c2cnc(N3CCOC4(CC4)C3=O)cc2-c2cc(C(F)F)ncc2OC)s1` (single isomer, unassigned) [Compound 588] displayed an IC50 of 0.75 nM.

In the case of `C#C[C@H]1CC1c1nnc(NC(=O)c2cnc(-n3ccc(C)cc3=O)cc2-c2cc(Cl)ncc2OC)s1` (single isomer, unassigned) [Compound 590], the IC50 was less than 0.25 nM.

The compound `C#C[C@H]1C[C@@H]1c1nnc(NC(=O)c2cnc(-n3ccc(OC4CCN(C)C4)cc3=O)cc2-c2cc(C(F)F)ncc2OC)s1` (single isomer, unassigned) [Compound 626] came in with an IC50 of 3.5 nM.

As for `C#C[C@H]1CC1c1nnc(NC(=O)c2cnc(-n3ccc(OC)cc3=O)cc2-c2cc(C(F)F)ncc2OC)s1` (single isomer, unassigned) [Compound 629], inhibition was half-maximal at 1 nM (IC50).

As to `C#C[C@H]1CC1c1nnc(NC(=O)c2cnc(-n3ncc(C)cc3=O)cc2-c2cc(C(F)F)ncc2OC)s1` (single isomer, unassigned) [Compound 632], the IC50 is 0.35 nM.

In the case of `C#C[C@H]1CC1c1nnc(NC(=O)c2cnc(N3CCN(C(=O)OC)C4(CC4)C3=O)cc2-c2cc(C(F)F)ncc2OC)s1` (single isomer, unassigned) [Compound 636], inhibition was half-maximal at 0.33 nM (IC50).

The compound `COc1cnc(C(F)F)cc1-c1cc(-n2ncc(C)cc2=O)ncc1C(=O)Nc1nnc(C2C[C@@H]2C)s1` (single isomer, unassigned) [Compound 642] yielded an IC50 of 0.72 nM.

Regarding `COc1ccc(C(F)(F)F)cc1-c1cnccc1C(=O)Nc1nnc(C2C[C@H]2c2ccc(C#N)cc2)s1` (stereo partly drawn) [Compound 30], it took 0.76 nM to reach half-maximal inhibition (IC50).

For `COc1cnc(Cl)cc1-c1cnccc1C(=O)Nc1nnc(C2C[C@H]2c2ccc(OC(F)F)cc2)s1` (stereo partly drawn) [Compound 62], the IC50 is 0.36 nM.

`COc1cnc(C(F)(F)F)cc1-c1cnccc1C(=O)Nc1nnc(C2C[C@H]2c2ccc(C#N)cc2)s1` (stereo partly drawn) [Compound 90] registered an IC50 of 0.8 nM.

Consider `CNC(=O)Cn1cc(-c2cc(C(F)(F)F)ccc2OC)c(C(=O)Nc2nnc(C3C[C@H]3c3ccc(C#N)cc3)s2)cc1=O` (stereo partly drawn) [Compound 92], for which half-maximal inhibition (IC50) was put at 0.25 nM.

`Cc1nnc(Cn2cc(-c3cc(C(F)F)ccc3C)c(C(=O)Nc3ncc(C#CC4CC4)s3)cc2=O)o1` [Compound 116] showed a 50% inhibitory concentration (IC50) of less than 0.25 nM.

`COc1cnc(C(F)F)cc1-c1cc(N(C)c2nnc(C)o2)ccc1C(=O)Nc1nnc(C#CC2CC2)s1` [Compound 118, N-(5-(cyclopropylethynyl)-1,3,4-thiadiazol-2-yl)-2-(2-(difluoromethyl)-5-methoxypyridin-4-yl)-4-(methyl (5-methyl-1,3,4-oxadiazol-2-yl)amino)benzamide] gave a half-inhibitory concentration (IC50) of 0.99 nM.

The compound `C#C[C@@H]1CC1c1nnc(NC(=O)c2ccc(N3CCOCC3=O)cc2-c2cc(C(F)F)ncc2OC)s1` (stereo partly drawn) [Compound 177] showed an IC50 of 0.39 nM.

`C#C[C@H]1CC1c1nnc(NC(=O)c2cnc(CC#N)cc2-c2cc(C(F)F)ncc2OC)s1` (stereo partly drawn) [Compound 190] had an IC50 of 5.8 nM.

`Cc1nnc(Cn2cc(-c3cc(C(F)F)ccc3Cl)c(C(=O)Nc3nc(C)c(C#CC4CC4)s3)cc2=O)o1` [Compound 199] registered an IC50 of 5.8 nM.

For `COc1cnc(C(F)F)cc1-c1cc(N2CCN(C)CC2=O)ccc1C(=O)Nc1ncc(C#CC2CC2)s1` [Compound 217], half-maximal inhibition (IC50) was put at 1.9 nM.

`COc1cnc(C(F)F)cc1-c1cc(CC2CCOCC2)ncc1C(=O)Nc1nnc(C#CC2CC2)s1` [Compound 267] showed an IC50 of 6.4 nM.

`COc1cnc(Cl)cc1-c1cnccc1C(=O)Nc1nnc(C2C[C@H]2c2ccc(C#N)c(C)c2)s1` (stereo partly drawn) [Compound 287] had a half-inhibitory concentration (IC50) of 0.93 nM.

`COc1cnc(C(F)F)cc1-c1c(C(=O)Nc2nnc(C#CC3CC3)s2)ccc(-c2ccn(C)n2)c1F` [Compound 385] came in with a 50% inhibitory concentration (IC50) of 0.87 nM.

In the case of `COc1cnc(C(F)F)cc1-c1nc(-c2nnc(C)o2)ccc1C(=O)Nc1ncc(C#CC2CC2)s1` [Compound 392], the half-maximal inhibitory concentration (IC50) is more than 100 nM.

The compound `COc1cnc(C(F)F)cc1-c1cc(-n2cc(C)c(C)cc2=O)ncc1C(=O)Nc1nnc(C#CC2CC2)s1` [Compound 476] came in with an IC50 of less than 0.25 nM.

In the case of `Cn1ccc(C2C=C(c3cc(C(F)(F)F)ncc3Cl)C(C(=O)Nc3ncc(C#CC4CC4)s3)=CC2=O)n1` (stereo not drawn) [Compound 479], the IC50 was 7.4 nM.

Compound `COc1cnc(C(F)(F)F)nc1-c1cc(CC#N)ccc1C(=O)Nc1nnc(C#CC2CC2)s1` [Compound 482] displayed an IC50 of 0.73 nM.

In turn, `COc1cnc(C(F)F)cc1-c1cc(-c2cccn(C)c2=O)ncc1C(=O)Nc1nnc(C#CC2CC2)s1` [Compound 483] yielded a 50% inhibitory concentration (IC50) of less than 0.25 nM.

`COc1cnc(C(F)F)cc1-c1cc(-c2ccc[nH]c2=O)ncc1C(=O)Nc1nnc(C#CC2CC2)s1` [Compound 484] gave an IC50 of 0.32 nM.

As to `COc1cnc(C(F)F)cc1-c1cc(N2C[C@H](C)OCC2=O)ncc1C(=O)Nc1nnc(C#CC2CC2)s1` [Compound 486], the IC50 turned out to be 0.36 nM.

As for `COc1cnc(C(F)F)cc1-c1cc(-n2ccc(C)cc2=O)ncc1C(=O)Nc1nnc(C#CC2CCOCC2)s1` [Compound 487], the IC50 was less than 0.25 nM.
